Experimental findings from ChEMBL document CHEMBL6078616, “Seven-membered N-heterocycles as approved drugs and promising leads in medicinal chemistry as well as the metal-free domino access to their scaffolds” (Eur J Med Chem, 2024) are described below.

Broadly, the IC50 is the concentration that inhibits the measured activity by half. The Kd is the concentration at which binding is half-saturated.

The target in experiment [1] is Histone deacetylase 1 (Homo sapiens, UniProt Q13547). Briefly: Inhibition of HDAC1 (unknown origin).
In experiment [2] the target is Histone deacetylase 4 (Homo sapiens, UniProt P56524). The experiment can be described thus: Inhibition of HDAC4 (unknown origin).
Experiment [3] concerns the target Histone deacetylase 5 (Homo sapiens, UniProt Q9UQL6). Briefly: Inhibition of HDAC5 (unknown origin).
Experiment [4] concerns the target T1, Protein deacetylase HDAC6 (Homo sapiens, UniProt Q9UBN7).
T1 sequence (Q9UBN7 whole entry): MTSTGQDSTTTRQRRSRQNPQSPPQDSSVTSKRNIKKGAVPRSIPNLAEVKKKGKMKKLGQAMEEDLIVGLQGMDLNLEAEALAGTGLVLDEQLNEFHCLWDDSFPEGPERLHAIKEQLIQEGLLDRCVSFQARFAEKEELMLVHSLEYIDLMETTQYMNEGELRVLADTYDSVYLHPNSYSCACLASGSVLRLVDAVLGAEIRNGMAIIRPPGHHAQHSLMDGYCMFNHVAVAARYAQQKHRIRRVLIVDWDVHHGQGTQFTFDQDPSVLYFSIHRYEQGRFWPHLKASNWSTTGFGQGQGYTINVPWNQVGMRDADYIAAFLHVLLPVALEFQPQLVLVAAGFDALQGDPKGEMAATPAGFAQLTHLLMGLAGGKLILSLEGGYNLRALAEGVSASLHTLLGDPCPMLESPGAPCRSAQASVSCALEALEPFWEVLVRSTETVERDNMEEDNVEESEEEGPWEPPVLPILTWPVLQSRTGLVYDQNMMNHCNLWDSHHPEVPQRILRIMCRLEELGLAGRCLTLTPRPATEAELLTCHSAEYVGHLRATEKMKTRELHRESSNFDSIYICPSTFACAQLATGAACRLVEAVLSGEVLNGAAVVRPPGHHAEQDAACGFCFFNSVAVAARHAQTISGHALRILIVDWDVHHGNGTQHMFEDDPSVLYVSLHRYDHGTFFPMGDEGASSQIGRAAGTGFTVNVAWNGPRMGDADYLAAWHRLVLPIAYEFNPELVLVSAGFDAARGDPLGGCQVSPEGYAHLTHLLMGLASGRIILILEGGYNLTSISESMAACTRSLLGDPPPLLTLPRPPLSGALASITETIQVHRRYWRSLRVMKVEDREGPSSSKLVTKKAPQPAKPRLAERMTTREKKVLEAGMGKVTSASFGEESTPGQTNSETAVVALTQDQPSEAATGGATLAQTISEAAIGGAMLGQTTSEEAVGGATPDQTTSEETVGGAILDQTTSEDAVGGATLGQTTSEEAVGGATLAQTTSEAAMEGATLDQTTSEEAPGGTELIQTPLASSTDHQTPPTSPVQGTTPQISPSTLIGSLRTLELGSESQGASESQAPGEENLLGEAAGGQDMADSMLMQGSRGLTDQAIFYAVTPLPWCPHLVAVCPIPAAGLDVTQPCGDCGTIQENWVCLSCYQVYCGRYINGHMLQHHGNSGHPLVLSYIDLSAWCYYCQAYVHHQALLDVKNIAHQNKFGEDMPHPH
The experiment can be described thus: Inhibition of HDAC6 (unknown origin).

In experiment [5] the target is T2, Histone deacetylase 7 (Homo sapiens, UniProt Q8WUI4).
T2 sequence (Q8WUI4 whole entry): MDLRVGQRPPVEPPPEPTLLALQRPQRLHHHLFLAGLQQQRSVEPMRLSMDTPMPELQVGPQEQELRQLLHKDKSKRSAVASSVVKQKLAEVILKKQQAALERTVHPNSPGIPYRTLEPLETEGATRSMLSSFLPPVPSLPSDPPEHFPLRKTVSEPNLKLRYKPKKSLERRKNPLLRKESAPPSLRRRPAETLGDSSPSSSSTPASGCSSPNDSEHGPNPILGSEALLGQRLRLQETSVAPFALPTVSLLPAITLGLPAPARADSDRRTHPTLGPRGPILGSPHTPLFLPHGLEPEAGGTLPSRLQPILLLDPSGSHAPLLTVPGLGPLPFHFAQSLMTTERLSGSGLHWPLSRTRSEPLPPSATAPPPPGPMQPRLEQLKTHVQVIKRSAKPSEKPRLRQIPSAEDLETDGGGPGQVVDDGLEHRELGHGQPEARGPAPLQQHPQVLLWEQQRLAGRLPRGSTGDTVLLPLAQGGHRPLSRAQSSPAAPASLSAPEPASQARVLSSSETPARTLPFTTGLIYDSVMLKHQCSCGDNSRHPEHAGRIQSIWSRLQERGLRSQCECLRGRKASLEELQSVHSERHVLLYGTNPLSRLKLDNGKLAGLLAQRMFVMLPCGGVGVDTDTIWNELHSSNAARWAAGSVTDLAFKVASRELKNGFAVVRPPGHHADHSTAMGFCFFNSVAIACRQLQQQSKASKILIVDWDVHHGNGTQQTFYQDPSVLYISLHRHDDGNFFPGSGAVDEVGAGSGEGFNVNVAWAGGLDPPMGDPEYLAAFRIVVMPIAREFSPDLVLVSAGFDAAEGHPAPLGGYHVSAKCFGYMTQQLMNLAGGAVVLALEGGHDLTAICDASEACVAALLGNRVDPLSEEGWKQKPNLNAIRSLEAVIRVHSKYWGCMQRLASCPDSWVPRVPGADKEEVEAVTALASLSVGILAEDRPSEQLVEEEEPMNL
Briefly: Inhibition of HDAC7 (unknown origin).

The target of experiment [6] is T3, Histone deacetylase 8 (Homo sapiens, UniProt Q9BY41).
T3 sequence (Q9BY41 whole entry): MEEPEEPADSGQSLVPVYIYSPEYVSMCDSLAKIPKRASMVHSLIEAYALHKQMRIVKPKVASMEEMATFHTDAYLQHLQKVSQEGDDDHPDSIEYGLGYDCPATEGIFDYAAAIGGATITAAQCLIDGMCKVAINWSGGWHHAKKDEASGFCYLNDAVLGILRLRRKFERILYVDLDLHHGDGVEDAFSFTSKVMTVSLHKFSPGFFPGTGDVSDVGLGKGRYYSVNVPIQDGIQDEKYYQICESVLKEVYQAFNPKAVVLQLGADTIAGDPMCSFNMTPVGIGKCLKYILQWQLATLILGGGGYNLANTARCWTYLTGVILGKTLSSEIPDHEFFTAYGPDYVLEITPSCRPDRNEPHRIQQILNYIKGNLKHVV
Briefly: Inhibition of HDAC8 (unknown origin).

The target of experiment [7] is Histone deacetylase 9 (Homo sapiens, UniProt Q9UKV0). The experiment can be described thus: Inhibition of HDAC9 (unknown origin).
Experiment [8] deals with T4, Polyamine deacetylase HDAC10 (Homo sapiens, UniProt Q969S8).
T4 sequence (Q969S8 whole entry): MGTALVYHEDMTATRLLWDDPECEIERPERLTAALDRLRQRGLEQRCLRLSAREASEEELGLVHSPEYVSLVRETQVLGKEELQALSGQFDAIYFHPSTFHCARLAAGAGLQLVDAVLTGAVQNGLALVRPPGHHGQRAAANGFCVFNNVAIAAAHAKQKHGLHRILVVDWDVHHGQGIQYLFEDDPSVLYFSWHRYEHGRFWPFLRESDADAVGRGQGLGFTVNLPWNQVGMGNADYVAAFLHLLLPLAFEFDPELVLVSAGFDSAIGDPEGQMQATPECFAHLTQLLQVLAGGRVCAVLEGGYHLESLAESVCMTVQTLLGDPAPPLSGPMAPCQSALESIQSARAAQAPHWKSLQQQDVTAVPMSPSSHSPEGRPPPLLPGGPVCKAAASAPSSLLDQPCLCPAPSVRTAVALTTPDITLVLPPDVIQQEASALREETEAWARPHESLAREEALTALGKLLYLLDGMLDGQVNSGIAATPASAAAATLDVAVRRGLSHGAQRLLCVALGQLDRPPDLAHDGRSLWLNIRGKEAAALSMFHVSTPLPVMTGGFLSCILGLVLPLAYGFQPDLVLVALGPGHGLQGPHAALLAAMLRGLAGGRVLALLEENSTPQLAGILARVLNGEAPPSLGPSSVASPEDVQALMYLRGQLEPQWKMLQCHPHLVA
Briefly: Inhibition of HDAC10 (unknown origin).

The target of experiment [9] is T5, Histone deacetylase 11 (Homo sapiens, UniProt Q96DB2).
T5 sequence (Q96DB2 whole entry): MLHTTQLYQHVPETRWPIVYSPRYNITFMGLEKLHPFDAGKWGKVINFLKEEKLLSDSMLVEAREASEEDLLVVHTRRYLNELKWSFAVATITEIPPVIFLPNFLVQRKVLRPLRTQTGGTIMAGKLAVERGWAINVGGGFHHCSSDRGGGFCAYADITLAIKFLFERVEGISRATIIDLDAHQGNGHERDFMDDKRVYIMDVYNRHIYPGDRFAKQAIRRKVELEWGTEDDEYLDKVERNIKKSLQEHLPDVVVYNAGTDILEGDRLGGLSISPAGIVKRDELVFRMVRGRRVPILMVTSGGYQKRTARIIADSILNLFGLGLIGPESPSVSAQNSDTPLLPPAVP
Briefly: Inhibition of HDAC11 (unknown origin).

The target in experiment [10] is Sphingosine kinase 1 (Homo sapiens, UniProt Q9NYA1). Briefly: Inhibition of SPHK1 (unknown origin).
Experiment [11] concerns the target Spike glycoprotein (Severe acute respiratory syndrome coronavirus 2, UniProt P0DTC2). Briefly: Binding affinity to SARS-Cov-2 Spike protein assessed as dissociation constant.
The target in experiment [12] is Histone deacetylase 3 (Homo sapiens, UniProt O15379). Briefly: Inhibition of HDAC3 (unknown origin).
The target in experiment [13] is Histone deacetylase 2 (Homo sapiens, UniProt Q92769). The experiment can be described thus: Inhibition of HDAC2 (unknown origin).
Experiment [14] has as its system MCF7. Briefly: Antiproliferative activity against human MCF7 cells assessed as reduction in cell viability. It counts as functional, cell-based.
Experiment [15] has as its target Vasopressin V1a receptor (Homo sapiens, UniProt P37288). The experiment can be described thus: Inhibition of Vasopressin V1A receptor (unknown origin).

Chain of Sphingosine kinase 1 (Q9NYA1 whole entry): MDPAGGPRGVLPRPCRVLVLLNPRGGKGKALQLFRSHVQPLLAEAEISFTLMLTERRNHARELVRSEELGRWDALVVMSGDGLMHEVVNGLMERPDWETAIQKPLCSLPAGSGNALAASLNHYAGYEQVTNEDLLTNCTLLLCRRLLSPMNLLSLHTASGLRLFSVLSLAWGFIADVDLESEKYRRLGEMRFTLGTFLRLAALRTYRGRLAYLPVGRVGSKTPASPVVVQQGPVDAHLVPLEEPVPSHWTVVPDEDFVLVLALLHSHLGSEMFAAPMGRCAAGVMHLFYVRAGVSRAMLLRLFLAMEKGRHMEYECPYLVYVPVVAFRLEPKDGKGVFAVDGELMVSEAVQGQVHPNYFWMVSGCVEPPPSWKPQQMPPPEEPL
Chain of Histone deacetylase 5 (Q9UQL6 whole entry): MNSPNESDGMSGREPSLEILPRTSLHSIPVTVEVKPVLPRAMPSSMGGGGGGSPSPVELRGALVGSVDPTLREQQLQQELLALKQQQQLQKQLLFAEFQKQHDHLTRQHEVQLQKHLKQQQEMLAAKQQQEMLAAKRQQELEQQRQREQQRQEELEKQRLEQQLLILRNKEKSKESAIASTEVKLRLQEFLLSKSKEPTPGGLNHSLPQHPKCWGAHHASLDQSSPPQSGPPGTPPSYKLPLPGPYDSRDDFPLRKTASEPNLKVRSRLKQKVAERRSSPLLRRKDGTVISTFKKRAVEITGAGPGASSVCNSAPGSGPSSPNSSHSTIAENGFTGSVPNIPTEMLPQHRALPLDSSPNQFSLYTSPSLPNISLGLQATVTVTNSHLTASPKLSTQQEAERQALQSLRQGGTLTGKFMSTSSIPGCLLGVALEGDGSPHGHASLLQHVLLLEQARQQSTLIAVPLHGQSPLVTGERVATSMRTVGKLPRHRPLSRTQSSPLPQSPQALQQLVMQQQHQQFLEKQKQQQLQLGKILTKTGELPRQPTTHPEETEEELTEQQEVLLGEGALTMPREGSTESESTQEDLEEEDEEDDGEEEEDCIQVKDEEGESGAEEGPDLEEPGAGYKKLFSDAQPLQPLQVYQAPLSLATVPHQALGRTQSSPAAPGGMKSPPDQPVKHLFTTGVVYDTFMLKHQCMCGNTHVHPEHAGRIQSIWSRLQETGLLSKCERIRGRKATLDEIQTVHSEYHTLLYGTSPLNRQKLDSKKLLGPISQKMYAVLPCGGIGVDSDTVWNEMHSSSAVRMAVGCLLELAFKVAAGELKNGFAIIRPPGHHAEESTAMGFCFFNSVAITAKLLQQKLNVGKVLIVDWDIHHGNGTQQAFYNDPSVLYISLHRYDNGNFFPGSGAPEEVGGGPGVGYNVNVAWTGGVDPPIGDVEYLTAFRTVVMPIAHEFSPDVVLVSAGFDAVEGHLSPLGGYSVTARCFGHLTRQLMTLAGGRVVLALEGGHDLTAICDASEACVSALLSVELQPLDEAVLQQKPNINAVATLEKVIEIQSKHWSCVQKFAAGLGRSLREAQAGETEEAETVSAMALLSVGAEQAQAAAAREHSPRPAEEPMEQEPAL
Chain of Histone deacetylase 9 (Q9UKV0 whole entry): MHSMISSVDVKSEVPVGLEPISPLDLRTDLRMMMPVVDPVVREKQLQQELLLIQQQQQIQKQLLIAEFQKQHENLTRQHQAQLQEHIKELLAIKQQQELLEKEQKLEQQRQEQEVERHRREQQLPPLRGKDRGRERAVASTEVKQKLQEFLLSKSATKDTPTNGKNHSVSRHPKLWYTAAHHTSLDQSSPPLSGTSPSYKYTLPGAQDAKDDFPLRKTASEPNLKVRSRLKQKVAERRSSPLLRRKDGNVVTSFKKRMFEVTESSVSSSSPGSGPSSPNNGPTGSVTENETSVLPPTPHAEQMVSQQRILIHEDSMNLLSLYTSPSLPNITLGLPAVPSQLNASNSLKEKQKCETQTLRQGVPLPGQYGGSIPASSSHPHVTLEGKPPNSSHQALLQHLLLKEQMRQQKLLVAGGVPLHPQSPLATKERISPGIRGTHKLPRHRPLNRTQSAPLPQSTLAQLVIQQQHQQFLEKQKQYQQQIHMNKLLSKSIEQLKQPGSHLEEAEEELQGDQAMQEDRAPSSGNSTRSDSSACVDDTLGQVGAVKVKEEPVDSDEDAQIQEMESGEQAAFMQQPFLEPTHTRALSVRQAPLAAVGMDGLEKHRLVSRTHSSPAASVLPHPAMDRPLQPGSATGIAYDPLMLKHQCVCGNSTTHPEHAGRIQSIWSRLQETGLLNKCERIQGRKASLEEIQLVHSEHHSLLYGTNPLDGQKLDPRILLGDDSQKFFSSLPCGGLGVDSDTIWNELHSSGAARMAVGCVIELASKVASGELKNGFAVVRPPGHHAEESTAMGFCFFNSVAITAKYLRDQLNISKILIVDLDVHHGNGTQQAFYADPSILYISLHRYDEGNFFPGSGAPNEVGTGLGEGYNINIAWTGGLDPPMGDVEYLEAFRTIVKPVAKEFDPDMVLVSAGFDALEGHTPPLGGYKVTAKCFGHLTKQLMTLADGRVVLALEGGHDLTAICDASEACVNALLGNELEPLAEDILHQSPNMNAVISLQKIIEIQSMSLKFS
Chain of Histone deacetylase 1 (Q13547 whole entry): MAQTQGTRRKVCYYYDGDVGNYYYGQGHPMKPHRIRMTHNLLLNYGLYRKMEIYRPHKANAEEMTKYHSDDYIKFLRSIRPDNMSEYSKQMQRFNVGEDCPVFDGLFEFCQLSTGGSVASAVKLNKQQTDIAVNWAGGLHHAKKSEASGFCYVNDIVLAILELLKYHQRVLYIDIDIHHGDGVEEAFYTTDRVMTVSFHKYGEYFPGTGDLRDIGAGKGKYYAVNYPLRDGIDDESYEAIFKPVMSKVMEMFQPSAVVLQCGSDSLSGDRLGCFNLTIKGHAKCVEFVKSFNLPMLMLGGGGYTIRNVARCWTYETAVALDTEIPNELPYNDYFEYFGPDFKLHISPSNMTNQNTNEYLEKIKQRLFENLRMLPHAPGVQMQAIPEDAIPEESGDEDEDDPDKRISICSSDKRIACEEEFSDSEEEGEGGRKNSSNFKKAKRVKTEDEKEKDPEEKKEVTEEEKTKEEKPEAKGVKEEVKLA
Chain of Histone deacetylase 3 (O15379 whole entry): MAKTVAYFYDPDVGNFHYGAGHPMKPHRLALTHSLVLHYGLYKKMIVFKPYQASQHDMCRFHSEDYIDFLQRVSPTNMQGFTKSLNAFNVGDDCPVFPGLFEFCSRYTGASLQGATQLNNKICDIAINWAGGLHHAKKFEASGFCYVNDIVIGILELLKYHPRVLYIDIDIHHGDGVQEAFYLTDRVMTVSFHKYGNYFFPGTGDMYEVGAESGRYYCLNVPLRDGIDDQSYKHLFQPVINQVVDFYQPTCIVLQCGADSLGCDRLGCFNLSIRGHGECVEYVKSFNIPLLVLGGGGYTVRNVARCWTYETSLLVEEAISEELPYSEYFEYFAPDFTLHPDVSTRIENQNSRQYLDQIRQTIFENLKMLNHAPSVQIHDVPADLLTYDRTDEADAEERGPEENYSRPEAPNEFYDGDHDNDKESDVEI
Chain of Histone deacetylase 2 (Q92769 whole entry): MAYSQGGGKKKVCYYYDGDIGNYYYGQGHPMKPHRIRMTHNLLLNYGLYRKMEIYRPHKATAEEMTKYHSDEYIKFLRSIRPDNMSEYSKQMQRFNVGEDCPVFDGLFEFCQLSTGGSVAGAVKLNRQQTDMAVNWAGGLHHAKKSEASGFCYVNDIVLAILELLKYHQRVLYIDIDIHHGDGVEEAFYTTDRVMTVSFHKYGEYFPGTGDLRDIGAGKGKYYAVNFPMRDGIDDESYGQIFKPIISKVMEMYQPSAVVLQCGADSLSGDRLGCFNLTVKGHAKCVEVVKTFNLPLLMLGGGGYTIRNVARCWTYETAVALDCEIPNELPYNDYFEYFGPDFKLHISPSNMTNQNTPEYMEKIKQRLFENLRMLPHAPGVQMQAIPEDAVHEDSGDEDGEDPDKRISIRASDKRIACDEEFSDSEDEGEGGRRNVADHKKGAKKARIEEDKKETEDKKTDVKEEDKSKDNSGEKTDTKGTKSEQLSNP
Chain of Vasopressin V1a receptor (P37288 whole entry): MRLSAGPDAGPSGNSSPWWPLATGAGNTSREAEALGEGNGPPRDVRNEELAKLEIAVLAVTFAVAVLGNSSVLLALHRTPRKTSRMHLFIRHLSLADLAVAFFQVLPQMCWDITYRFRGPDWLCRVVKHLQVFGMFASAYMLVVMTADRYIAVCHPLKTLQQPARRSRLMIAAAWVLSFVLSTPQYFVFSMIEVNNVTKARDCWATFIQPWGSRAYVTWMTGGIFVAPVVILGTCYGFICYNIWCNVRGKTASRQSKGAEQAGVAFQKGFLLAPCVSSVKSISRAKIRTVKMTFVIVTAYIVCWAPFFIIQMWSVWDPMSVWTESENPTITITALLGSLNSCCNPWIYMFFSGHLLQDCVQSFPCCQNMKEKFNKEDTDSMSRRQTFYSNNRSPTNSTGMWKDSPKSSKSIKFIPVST

`O=C(NO)c1ccc(CN2c3ccccc3SC[C@H]3CCCC[C@H]32)cc1`: the concentration for half-maximal inhibition (IC50) in experiment [1] is > 30 µM; in experiment [2] it was > 30 µM; in experiment [3], 27 µM; in experiment [4], 0.03 µM; in experiment [5], > 30 µM; in experiment [6], 5.3 µM. Further, the results for the concentration for half-maximal inhibition (IC50) in experiment [7], in experiment [8] and in experiment [9] were 25 µM, > 30 µM and 1.5 µM, respectively.

Turning to `Brc1cc2c(c3ccccc13)N1OC(C2)CC1CCc1ccccc1` (stereo not given), in experiment [10], the IC50 is > 650 µM.

Turning to `CN1CCCC(n2nc(Cc3ccc(Cl)cc3)c3ccccc3c2=O)CC1` (stereo not given) [AZELASTINE], the Kd in [11] amounted to 0.258 µM.

For the compound `CC1Cc2c(Cl)nc(-c3ccccc3)nc2N(C)c2ccc(O)cc21` (stereo not given), the half-maximal inhibitory concentration (IC50) in experiment [10] was > 650 µM.

On to `O=C(NO)c1ccc(CN2c3cc(C(F)(F)F)ccc3S(=O)(=O)C[C@H]3CCCC[C@H]32)cc1`, for which the IC50 in experiment [1] is 8.8 µM; in experiment [12], 16 µM; in experiment [13], 16 µM; in experiment [3], 22 µM; in experiment [4], 0.01 µM; in [5], 15 µM. Further, the IC50 was 2 µM in experiment [6], > 30 µM in experiment [7], 9.4 µM in experiment [8] and 0.85 µM in experiment [9].

Turning to `CC1C[C@]2(C)C(NCCCNCCCCNCCCN)=Nc3ccccc3[C@]2(C)N(C)c2ccccc21` (stereo not given in full), the half-maximal inhibitory concentration (IC50) in experiment [14] came out at 9.84 µM.

In experiment [15], `Cc1ccccc1C(=O)Nc1ccc(C(=O)N2CCC[C@H](N(C)C)c3ccccc32)cc1` showed a concentration for half-maximal inhibition (IC50) of 14 µM.

`NCCCNCCCCNCCCNC1=Nc2ccccc2CCC1`: the IC50 in experiment [14] was > 50 µM.
